According to ChEMBL document CHEMBL3879881, “Substituted pyrazolyl compounds for the treatment of inflammation” (2005):

What follows are molecules tested against T1, Inhibitor of nuclear factor kappa-B kinase subunit beta (Homo sapiens, UniProt O14920) (assay: Inhibition of human recombinant C-terminal FLAG-epitope-tagged IKK2 expressed in baculovirus using biotinylated IkappaBalpha peptide as substrate assessed as decrease in [gamma-33P]-ATP incorporation in substrate after 30 mins by scintillation counting method).
T1 sequence (O14920 whole entry): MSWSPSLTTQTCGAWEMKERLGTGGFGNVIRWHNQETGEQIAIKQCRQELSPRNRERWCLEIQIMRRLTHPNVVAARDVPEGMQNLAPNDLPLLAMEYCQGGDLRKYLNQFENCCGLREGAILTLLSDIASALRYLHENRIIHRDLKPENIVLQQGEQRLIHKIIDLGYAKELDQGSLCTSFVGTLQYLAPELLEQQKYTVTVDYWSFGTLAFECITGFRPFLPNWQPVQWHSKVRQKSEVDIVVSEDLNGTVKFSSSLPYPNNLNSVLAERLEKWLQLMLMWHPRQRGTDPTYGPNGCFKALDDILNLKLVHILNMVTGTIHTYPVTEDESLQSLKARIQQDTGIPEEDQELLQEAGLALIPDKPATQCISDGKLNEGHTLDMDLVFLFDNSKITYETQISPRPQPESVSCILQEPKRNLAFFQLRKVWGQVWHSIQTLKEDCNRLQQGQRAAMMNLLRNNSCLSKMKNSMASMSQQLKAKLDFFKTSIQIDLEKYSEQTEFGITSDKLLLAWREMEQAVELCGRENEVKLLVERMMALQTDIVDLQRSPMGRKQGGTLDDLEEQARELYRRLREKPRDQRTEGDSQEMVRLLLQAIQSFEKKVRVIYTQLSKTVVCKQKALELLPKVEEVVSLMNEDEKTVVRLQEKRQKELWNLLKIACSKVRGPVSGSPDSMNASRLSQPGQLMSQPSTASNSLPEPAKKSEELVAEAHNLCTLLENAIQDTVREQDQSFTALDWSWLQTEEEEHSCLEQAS

Row | Compound | IC50 [nM]
1 | NC(=O)c1nn(-c2ccc(S(N)(=O)=O)cc2)c2c1CCc1ccc(NCc3ccccc3)cc1-2 | 1000 to 10000
2 | C[S+]([O-])c1ccc(-n2nc(C(N)=O)c3c2-c2cc(NC(=O)c4cc(N)ccc4Cl)ccc2CC3)cc1 (stereo unspecified) | ≤ 1000
3 | CN1CCN(c2ccc(Cl)c(C(=O)Nc3ccc4c(c3)-c3c(c(C(N)=O)nn3-c3ccc(S(C)(=O)=O)cc3)CC4)c2)CC1 | < 1000
4 | NC(=O)c1nn(-c2ccc(F)c(F)c2)c2c1CCc1ccc(NC(=O)c3cccc(Cl)c3Cl)cc1-2 | 1000 to 10000
5 | COc1ccc(S(=O)(=O)Nc2ccc3c(c2)-c2c(c(C(N)=O)nn2-c2ccc(S(N)(=O)=O)cc2)CC3)cc1 | 10000 to 100000
6 | NC(=O)c1nn(-c2ccc(S(=O)(=O)C(F)(F)F)cc2)c2c1CCc1ccc(N)cc1-2 | 1000 to 10000
7 | NC(=O)c1nn(-c2ccc(F)cc2)c2c1CCc1ccc(NC(=O)c3cc(N4CCCNCC4)ncc3Cl)cc1-2 | ≤ 1000
8 | CS(=O)(=O)Nc1ccc2c(c1)-c1c(c(C(N)=O)nn1-c1ccc(S(N)(=O)=O)cc1)CC2 | ≤ 1000
9 | NC(=O)c1nn(-c2ccc(S(N)(=O)=O)cc2)c2c1CCc1ccc(NC(=O)Cc3ccccc3)cc1-2 | 1000 to 10000
10 | NC(=O)c1nn(-c2ccc(NC(=O)c3ccccc3Cl)cc2)c2c1CCc1ccc(NC(=O)c3ccccc3Cl)cc1-2 | 1000 to 10000
11 | NC(=O)c1nn(-c2ccc(S(N)(=O)=O)cc2)c2c1CCc1ccc(NS(=O)(=O)c3cccc4cnccc34)cc1-2 | 1000 to 10000
12 | NC(=O)c1nn(-c2ccc(O)cc2)c2c1CCc1ccc(NC(=O)c3cc4c(cc3Cl)OCO4)cc1-2 | ≤ 1000
13 | Cc1cccc(C(=O)Nc2ccc3c(c2)-c2c(c(C(N)=O)nn2-c2ccc(S(C)(=O)=O)cc2)CC3)c1 | 1000 to 10000
14 | C=CCN(CC=C)S(=O)(=O)c1ccc(-n2nc(C(N)=O)c3c2-c2cc(NS(C)(=O)=O)ccc2CC3)cc1 | 1000 to 10000
15 | NC(=O)c1nn(-c2ccc(S(N)(=O)=O)cc2)c2c1CCc1ccc(NC(=O)C34CC5CC(CC(C5)C3)C4)cc1-2 | 1000 to 10000
16 | NC(=O)c1nn(-c2ccc(S(N)(=O)=O)cc2)c2c1CCc1ccc(NC(=O)c3cccc(Cl)c3)cc1-2 | ≤ 1000
17 | Cc1ccc(CNc2ccc3c(c2)-c2c(c(C(N)=O)nn2-c2ccc(S(N)(=O)=O)cc2)CC3)cc1 | 10000 to 100000
18 | COc1ccc(CNc2ncccc2C(=O)Nc2ccc3c(c2)-c2c(c(C(N)=O)nn2-c2ccc4c(c2)OCO4)CC3)cc1 | 10000 to 100000
19 | COc1ccc(-c2ccc(-n3nc(C(N)=O)c4c3-c3cc(NC(=O)c5ccccc5Cl)ccc3CC4)cc2)cc1OC | 1000 to 10000
20 | NC(=O)c1nn(-c2ccc3c(c2)OCO3)c2c1CCc1ccc(NC(=O)c3cccc(O)n3)cc1-2 | 1000 to 10000
21 | NC(=O)c1nn(-c2ccc(S(N)(=O)=O)cc2)c2c1CCc1ccc(NC(=O)C3CCC3)cc1-2 | 1000 to 10000
22 | NC(=O)c1nn(-c2ccc(OCc3ccccc3)cc2)c2c1CCc1ccc(NC(=O)c3cccnc3Cl)cc1-2 | 1000 to 10000
23 | Cc1ccccc1C(=O)Nc1ccc2c(c1)-c1c(c(C(N)=O)nn1-c1ccc3c(c1)OCO3)CC2 | 1000 to 10000
24 | NC(=O)c1nn(-c2ccc(F)cc2)c2c1CCc1ccc(NC(=O)c3cc(Cl)ncc3Cl)cc1-2 | ≤ 1000

Row | Compound | IC50 [nM]
25 | NC(=O)c1nn(-c2ccc3c(c2)OCO3)c2c1CCc1ccc(NC(=O)c3cc(Cl)cnc3Cl)cc1-2 | ≤ 1000
26 | NC(=O)c1nn(-c2ccc(S(N)(=O)=O)cc2)c2c1CCc1ccc(NC(=O)c3cccnc3)cc1-2 | ≤ 1000
27 | CN1CCN(c2ccc(Cl)c(C(=O)Nc3ccc4c(c3)-c3c(c(C(N)=O)nn3-c3ccc5c(c3)OCO5)CC4)c2)CC1 | ≤ 1000
28 | NC(=O)c1nn(-c2ccc(F)cc2)c2c1CCc1ccc(NC(=O)c3nc(N4CCOCC4)ccc3Cl)cc1-2 | 1000 to 10000
29 | CC(=O)/C=C/c1ccc(-n2nc(C(N)=O)c3c2-c2cc(NC(=O)c4ccccc4Cl)ccc2CC3)cc1 | ≤ 1000
30 | NC(=O)c1nn(-c2ccc(Cl)cc2)c2c1CCc1ccc(NC(=O)c3cnccc3Cl)cc1-2 | ≤ 1000
31 | C[S+]([O-])c1ccc(-n2nc(C(N)=O)c3c2-c2cc(NS(C)(=O)=O)ccc2CC3)cc1 (stereo unspecified) | 1000 to 10000
32 | CN(C)CCNS(=O)(=O)c1ccc(-n2nc(C(N)=O)c3c2-c2cc(N)ccc2CC3)cc1 | 1000 to 10000
33 | Cc1cccc(C(=O)Nc2ccc3c(c2)-c2c(c(C(N)=O)nn2-c2ccc(S(C)(=O)=O)cc2)CC3)c1[N+](=O)[O-] | 1000 to 10000
34 | NC(=O)c1nn(-c2ccc(-c3cccc(CO)c3)cc2)c2c1CCc1ccc(NC(=O)c3ccccc3Cl)cc1-2 | 1000 to 10000
35 | NC(=O)c1nn(-c2ccc(F)cc2)c2c1CCc1ccc(NC(=O)c3cc(N4CCN(CCO)CC4)ncc3Cl)cc1-2 | ≤ 1000
36 | CN(C)CC(=O)Nc1ccc(C(=O)Nc2ccc3c(c2)-c2c(c(C(N)=O)nn2-c2ccc4c(c2)OCO4)CC3)c(Cl)c1 | 1000 to 10000
37 | C[S+]([O-])c1ccc(-n2nc(C(N)=O)c3c2-c2cc(NC(=O)c4cccnc4Cl)ccc2CC3)cc1 (stereo unspecified) | ≤ 1000
38 | C[S+]([O-])c1ccc(-n2nc(C(N)=O)c3c2-c2cc(NC(=O)c4ccncc4Cl)ccc2CC3)cc1 (stereo unspecified) | ≤ 1000
39 | NC(=O)c1nn(-c2ccc(NC(=O)COCc3ccccc3)cc2)c2c1CCc1ccc(NC(=O)c3ccccc3Cl)cc1-2 | 1000 to 10000
40 | NC(=O)c1nn(-c2ccc(S(N)(=O)=O)cc2)c2c1CCc1ccc(NC(=O)c3cccc(C(F)(F)F)c3)cc1-2 | 1000 to 10000
41 | CS(=O)(=O)c1ccc(-n2nc(C(N)=O)c3c2-c2cc(NC(=O)C4CCC4)ccc2CC3)cc1 | 1000 to 10000
42 | CC(=O)Nc1ccc2c(c1)-c1c(c(C(N)=O)nn1-c1ccc(S(N)(=O)=O)cc1)CC2 | 10000 to 100000
43 | NC(=O)c1nn(-c2ccc(S(N)(=O)=O)cc2)c2c1CCc1ccc(NC(=O)c3ccc(C(F)(F)F)cc3)cc1-2 | 1000 to 10000
44 | C[S+]([O-])c1ccc(Cl)c(C(=O)Nc2ccc3c(c2)-c2c(c(C(N)=O)nn2-c2ccc4c(c2)OCO4)CC3)c1 (stereo unspecified) | ≤ 1000
45 | NC(=O)c1nn(-c2ccc3c(c2)OCO3)c2c1CCc1ccc(NC(=O)c3ccoc3)cc1-2 | 1000 to 10000
46 | COc1ccc([N+](=O)[O-])c(C(=O)Nc2ccc3c(c2)-c2c(c(C(N)=O)nn2-c2ccc4c(c2)OCO4)CC3)c1 | 1000 to 10000
47 | C[C@@H]1CN(c2cc(C(=O)Nc3ccc4c(c3)-c3c(c(C(N)=O)nn3-c3ccc(F)cc3)CC4)c(Cl)cn2)C[C@H](C)N1 | ≤ 1000
48 | C[S+]([O-])c1ccc(-n2nc(C(N)=O)c3c2-c2cc(NC(=O)c4ccccc4Cl)ccc2CC3)cc1 (stereo unspecified) | ≤ 1000

Row | Compound | IC50 [nM]
49 | NC(=O)c1nn(-c2ccc3c(c2)OCO3)c2c1CCc1ccc(NC(=O)c3cc[n+]([O-])cc3)cc1-2 | 1000 to 10000
50 | N#Cc1ccc(Cl)c(C(=O)Nc2ccc3c(c2)-c2c(c(C(N)=O)nn2-c2ccc4c(c2)OCO4)CC3)n1 | 1000 to 10000
51 | Cc1c(C(=O)Nc2ccc3c(c2)-c2c(c(C(N)=O)nn2-c2ccc(S(C)(=O)=O)cc2)CC3)cccc1[N+](=O)[O-] | 1000 to 10000
52 | CSc1ccc(-n2nc(C(N)=O)c3c2-c2cc(NC(=O)c4ccccc4Cl)ccc2CC3)cc1 | 1000 to 10000
53 | NC(=O)c1nn(-c2ccc(S(N)(=O)=O)cc2)c2c1CCc1ccc(NS(=O)(=O)c3ccc(F)cc3F)cc1-2 | 10000 to 100000
54 | CCCCS(=O)(=O)c1ccc(-n2nc(C(N)=O)c3c2-c2cc(NC(=O)c4ccccc4Cl)ccc2CC3)cc1 | 1000 to 10000
55 | CNC(=O)/C=C/c1ccc(-n2nc(C(N)=O)c3c2-c2cc(N)ccc2CC3)cc1 | 1000 to 10000
56 | NC(=O)c1nn(-c2ccc(S(N)(=O)=O)cc2)c2c1CCc1ccc(NCc3ccc(Cl)cc3)cc1-2 | 10000 to 100000
57 | NC(=O)c1nn(-c2ccc(S(N)(=O)=O)cc2)c2c1CCc1ccc(NC(=O)c3cccc(Br)c3)cc1-2 | ≤ 1000
58 | CCNC(=O)Nc1ccc2c(c1)-c1c(c(C(N)=O)nn1-c1ccc(S(N)(=O)=O)cc1)CC2 | 1000 to 10000
59 | Cc1cccc(C(=O)Nc2ccc3c(c2)-c2c(c(C(N)=O)nn2-c2ccc(S(N)(=O)=O)cc2)CC3)c1 | ≤ 1000
60 | NC(=O)c1nn(-c2ccc(S(=O)(=O)CC3CC3)cc2)c2c1CCc1ccc(NC(=O)c3ccccc3Cl)cc1-2 | 1000 to 10000
61 | CN(C)CCNc1cc(C(=O)Nc2ccc3c(c2)-c2c(c(C(N)=O)nn2-c2ccc(F)cc2)CC3)c(Cl)cn1 | ≤ 1000
62 | NC(=O)c1nn(-c2cccc(F)c2)c2c1CCc1ccc(NC(=O)c3cccc(Cl)c3Cl)cc1-2 | 1000 to 10000
63 | NC(=O)c1nn(-c2cccc(O)c2)c2c1CCc1ccc(NC(=O)c3cc(N)ccc3Cl)cc1-2 | ≤ 1000
64 | NC(=O)c1nn(-c2ccc(-c3ccc(C(=O)O)cc3)cc2)c2c1CCc1ccc(NC(=O)c3ccccc3Cl)cc1-2 | 1000 to 10000
65 | NC(=O)c1nn(-c2ccc(-c3cccnc3)cc2)c2c1CCc1ccc(NC(=O)c3ccccc3Cl)cc1-2 | 1000 to 10000
66 | NC(=O)c1nn(-c2ccc3c(c2)OCO3)c2c1CCc1ccc(NC(=O)CNC3CCCCC3)cc1-2 | 1000 to 10000
67 | Cc1cccc(C(=O)Nc2ccc3c(c2)-c2c(c(C(N)=O)nn2-c2ccc(S(C)(=O)=O)cc2)CC3)c1C | 1000 to 10000
68 | NC(=O)c1nn(-c2ccc(Cl)c(Cl)c2)c2c1CCc1ccc(NC(=O)c3ccccc3Cl)cc1-2 | 1000 to 10000
69 | CS(=O)(=O)Nc1ccc2c(c1)-c1c(c(C(N)=O)nn1-c1ccccc1)CC2 | 1000 to 10000
70 | CCCC(=O)Nc1ccc2c(c1)-c1c(c(C(N)=O)nn1-c1ccc(S(N)(=O)=O)cc1)CC2 | 1000 to 10000
71 | NC(=O)c1nn(-c2ccc(S(N)(=O)=O)cc2)c2c1CCc1ccc(NC(=O)c3ccccc3)cc1-2 | 1000 to 10000
